Test results published in US7977308B2, “Lys-Thr dipeptides and their use” (Sederma, priority 2005, dated 2011).
Where no end group is shown, it is not given here. The star is where a group is joined. Palmitoyl = CCCCCCCCCCCCCCCC(=O)*

Legend:
Type in all cases: cell-based
[1] = test system: Normal Human Dermal Fibroblasts (NHDF); assay: Survival estimated on cell layer using fluorescent probe Hoescht 33258; conditions: for cell proliferation / number of cells: after 3 days of culture
Method: (§1) Normal Human Dermal Fibroblasts (NHDF) were cultivated in culture plates in an appropriate culture medium (i.e. complete DMEM with fetal calf serum). After cell anchorage, cell layers (n=5 replicates) were rinsed with saline buffer and contact with molecules to be tested were performed in a complete DMEM without fetal calf serum. This medium contained ascorbate (sodium salt) and beta-aminopropionitrile, monofumarate. Two independent experimentations were performed for each di-peptide.
(§2) After 3 days of incubation, supernatants were collected and frozen. Survival was estimated on cell layer using the fluorescent probe Hoescht 33258. Collagen I was estimated using an original direct ELISA method. Fibronectin was estimated using ELISA commercial kit.

[2] = test system: Normal Human Dermal Fibroblasts (NHDF); assay: Quantification of Collagen I synthesis using human dermal fibroblasts (direct ELISA); conditions: 3 days of incubation
Method: (§3) Products were tested from 0.5 to 4 ppm depending of their solubility or toxicity. Pal-KTTKS was tested from 2 to 8 ppm.
(§4) Pal KTTKS (Lys-Thr-Thr-Lys-Ser), Pal KT (Lys-Thr), Pal KS (Lys-Ser) were prepared in Sederma Peptide Synthesis Laboratory. TGF-betal: 10^E-6%, was the positive control for collagen I and Fibronectin studies.
(§5) For this study, di-peptides were linked to the Palmitoic acid and were compared to Pal-KTTKS.
as §1, §2
(§6) Criteria: TGF-b1 should be promoter of Collagen I and Fibronectin synthesis. Statistical analysis were performed on Collagen I data (n=5/assay) or Fibronectin data (n=5/assay). Results obtained with molecules were compared to negative control. All data were ng/10^E6 cells. A Student t test for non paired values was used; significativity was obtained if p<0.05 or p<0.01.
(§7) The percents in the tables above were calculated from ng/10E6 data and compared to the negative control.

[3] = test system: Normal Human Dermal Fibroblasts (NHDF); assay: Quantification of Fibronectin synthesis using human dermal fibroblasts (ELISA commercial kit); conditions: 3 days of incubation
Method: as §3, §4, §5, §1, §2, §6, §7

`CCCCCCCCCCCCCCCC(=O)N[C@@H](CCCCN)C(=O)N[C@@H](CO)C(=O)O` [Pal KS] was tested, and the “toxicity on the cell layer” value ([1]; 4 ppm) was “seemed to induce a light toxicity”.
With “Pal KTTKS: Palmitoyl Lys-Thr-Thr-Lys-Ser, considered as a benchmark (Palmitoyl-KTTKS)” the “COLLAGEN I Mean, percent of negative control” value (“COLLAGEN I Mean, percent” for short) ([2]; 2 ppm) was “+5%”, the “COLLAGEN I Mean, percent” value ([2]; 4 ppm) was “+49%” and the “COLLAGEN I Mean, percent” value ([2]; 4 ppm, listed as Pal-KTTKS) was “+49%”. For the same compound, the “COLLAGEN I Mean, percent” value ([2]; 6 ppm) was “+111%”, the “COLLAGEN I Mean, percent” value ([2]; 6 ppm, listed as Pal-KTTKS) was “+111%” and the “COLLAGEN I Mean, percent” value ([2]; 8 ppm) was “+144%”. The “COLLAGEN I Mean, percent” value ([2]; 8 ppm, listed as Pal-KTTKS) was “+144%”, the “FIBRONECTIN Mean, percent of negative control” value (from here on “FIBRONECTIN Mean, percent”) ([3]; 2 ppm) was “+20%” and the “FIBRONECTIN Mean, percent” value ([3]; 2 ppm, listed as Pal KTRKS) was “probably active”. The “cell proliferation / number of cells” value [1] was “unchanged”.
For Pal-Lys-Thr-OH [Pal KT], the “COLLAGEN I Mean, percent” value ([2]; 1 ppm) was “+21%”.
With “TGF-beta: positive control for collagen I and Fibronectin studies” the “COLLAGEN I Mean, percent” value ([2]; 10 ppb) was “+95%”, the “COLLAGEN I Mean, percent” value ([2]; 10 ppb, listed as TGF-b1) was 95% and the “FIBRONECTIN Mean, percent” value ([3]; 10 ppb) was “+69%”. For the same compound, the “FIBRONECTIN Mean, percent” value ([3]; 10 ppb, listed as TGF-b1) was 69% and the “cell proliferation / number of cells” value [1] was “significant increase of cell proliferation”.
